What was measured:
[1] = In vitro thermal conversion of 1α-hydroxyprevitamin D to 1α-hydroxyvitamin D; assay type: physicochemical; settings: in ethanol, 37° C.
Method: A series of experiments were conducted which address the in vitro conversion of previtamin to vitamin for three 1α-hydroxyprevitamin D's: 1α-hydroxyprevitamin D2, 1α,24-dihydroxyprevitamin D2 and 1α-hydroxyprevitamin D3. Each 1α-hydroxyprevitamin D was dissolved in ethanol, incubated at 37° C. in a water bath, and samples taken at two-hour intervals. An analytical HPLC separation was performed on each sample to quantify the thermal conversion of the previtamin to the vitamin form. The data collected were normalized to account for the presence of any vitamin form in the initial formulation (≤10%). The results are presented in FIG. 1 which is a plot of % previtamin versus time in hours. Linear regression lines were generated for each previtamin.

[2] = Blood level of 1α,25-(OH)2 D3 in vitamin D-deficient rats after oral dosing (Example 3); assay type: in vivo, rat; settings: oral 0.25 μg/kg, 4 h
Method: Male weanling rats are fed a diet deficient in vitamin D and with normal calcium (0.47%). […] Four hours after administration, the rats are killed and their blood level of 1α,25-(OH)2 D3 is measured using a standard technique.

[3] = Equilibration of previtamin to vitamin form during binding incubation (HPLC); assay type: physicochemical; settings: end of the VDR binding incubation, read-out: fraction equilibrated to the vitamin form
[4] = Pharmacokinetics of 1α,25-(OH)2 D3 in vitamin D-deficient rats after oral dosing (Example 4); assay type: in vivo, rat; settings: single oral dose, 2-48 h
Method: One group is killed 8 hours after dosing with the vehicle. […] The blood is collected and analyzed for 1α,25-(OH)2 D3 levels.

[5] = Comparison of oral bioavailability in rachitic rats (Example 5); assay type: in vivo, rat; settings: oral, 12 h
Method: Three-week-old rats were maintained on a vitamin D-deficient diet containing normal levels of calcium and phosphorus for 3-6 weeks until marked hypocalcemia was observed. […] A control group received only the vehicle. For all treatment groups, blood was obtained at 12 hours postdosing, and analyzed for serum levels of the vitamin form.

half-life [1]: 17.7 h
blood level of 1α,25-(OH)2 D3 versus control [2]: significantly elevated
degraded [3]: ~2%
1α,25-(OH)2 D3 serum levels [4]: increased 1α,25-(OH)2 D3 serum levels
Compound: CC1=C(/C=C\C2=CCC[C@]3(C)[C@@H]([C@H](C)CCCC(C)(C)O)CC[C@@H]23)C[C@@H](O)C[C@@H]1O [1α,25-(OH)2 preD3, 1α,25-dihydroxyprevitamin D3]
time profile of serum 1α,25-(OH)2 D3 increase versus dosing with 1α,25-(OH)2 D3 [4]: more gradual and sustained for a greater duration
oral bioavailability versus 1α,25-(OH)2 D3 [5]: greater bioavailability than the active form of the vitamin

Source: US5795882A, “Method of treating prostatic diseases using delayed and/or sustained release vitamin D formulations” (Bone Care International, Inc., priority 1996, dated 1998)
